US9850227B2 (YUHAN CORPORATION, priority 2011, dated 2017)
Counter-ions that a name gives are not always drawn.

Biological target: T1, human 5-HT4(a) (Homo sapiens, UniProt Q13639)
T1 construct: host or cells: GeneBIAzer HTR4-CRE-bla CHO-K1 cells
Experiment: Evaluation of agonistic activity in CHO-K1 cells expressing human 5-HT4(a) (GeneBIAzer HTR4-CRE-bla CHO-K1 cells, beta-lactamase fluorescence ratio, EC50 from 8 concentrations)
Type: cell-based
Summary of the method: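 HTR4-CRE-bla CHO-K1 cells (10^4 per well, overnight in 1% FBS medium) exposed to compound for 5 h, then beta-lactamase substrate 2 h in the dark. Fluorescence ratio at 465/535 nm after 410 nm excitation; EC50 by non-linear regression over 8 concentrations.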

T1 sequence (Q13639 1-387 isoform Q13639-2): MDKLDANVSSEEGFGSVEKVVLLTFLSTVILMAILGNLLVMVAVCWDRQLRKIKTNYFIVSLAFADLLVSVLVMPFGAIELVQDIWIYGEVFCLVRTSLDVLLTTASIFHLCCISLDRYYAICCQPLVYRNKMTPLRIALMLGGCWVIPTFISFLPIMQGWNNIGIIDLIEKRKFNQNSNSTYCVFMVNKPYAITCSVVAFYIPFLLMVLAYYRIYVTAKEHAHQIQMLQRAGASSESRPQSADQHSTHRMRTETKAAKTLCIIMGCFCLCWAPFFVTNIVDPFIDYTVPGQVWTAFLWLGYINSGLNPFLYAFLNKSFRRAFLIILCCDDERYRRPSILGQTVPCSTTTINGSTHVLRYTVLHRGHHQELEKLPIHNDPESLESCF

Row | SMILES | EC50
1 | CCCCc1cc(N2CCC[C@@H](NC(C)=O)C2)nc(Nc2ccc(C)c(C#N)c2)n1 [Example 295, (R)—N-{1-[6-butyl-2-(3-cyano-4-methylphenylamino)pyrimidin-4-yl]piperidin-3-yl}acetamide] | 0.0086 nM
2 | CCCc1cc(N2CCC[C@H](NCC)C2)nc(Nc2ccc(C)c(C#N)c2)n1 [Example 296, (S)-5-[4-(3-ethylaminopiperidin-1-yl)-6-propylpyrimidin-2-ylamino]-2-methylbenzonitrile dihydrochloride] | 0.015 nM
3 | CCCc1cc(N2CCCC(NCC)C2)nc(Nc2ccc(C)c(C#N)c2)n1 (stereo not shown) [Example 297, 5-[4-(3-ethylaminopiperidin-1-yl)-6-propylpyrimidin-2-ylamino]-2-methylbenzonitrile dihydrochloride] | 0.0024 nM
4 | CCCCc1cc(N2CCCC(NC(C)=O)C2)nc(Nc2ccc(C)c(C#N)c2)n1 (stereo not shown) [Example 298, N-{1-[6-butyl-2-(3-cyano-4-methylphenylamino)pyrimidin-4-yl]piperidin-3-yl}acetamide hydrochloride] | 0.012 nM
5 | CCCCc1cc(N2CCC[C@@H](NCC)C2)nc(Nc2ccc(C)c(C#N)c2)n1 [Example 299, (R)-5-({4-butyl-6-[3-(ethylamino)piperidin-1-yl]pyrimidin-2-yl}amino)-2-methylbenzonitrile] | 0.004 nM
6 | CCCCN[C@@H]1CCCN(c2cc(CCCC)nc(Nc3ccc(C)c(C#N)c3)n2)C1 [Example 300, (R)-5-({4-butyl-6-[3-(butylamino)piperidin-1-yl]pyrimidin-2-yl}amino)-2-methylbenzonitrile] | 0.0097 nM
7 | CCCCCN[C@@H]1CCCN(c2cc(CCCC)nc(Nc3ccc(C)c(C#N)c3)n2)C1 [Example 301, (R)-5-({4-butyl-6-[3-(pentylamino)piperidin-1-yl]pyrimidin-2-yl}amino)-2-methylbenzonitrile] | 0.019 nM
8 | CCCCc1cc(N2CCC[C@@H](NCC(C)C)C2)nc(Nc2ccc(C)c(C#N)c2)n1 [Example 302, (R)-5-({4-butyl-6-[3-(isobutylamino)piperidin-1-yl]pyrimidin-2-yl}amino)-2-methylbenzonitrile] | 0.019 nM
9 | CCCCc1cc(N2CCC[C@@H](NCCC(C)C)C2)nc(Nc2ccc(C)c(C#N)c2)n1 [Example 303, (R)-5-({4-butyl-6-[3-(isopentylamino)piperidin-1-yl]pyrimidin-2-yl}amino)-2-methylbenzonitrile] | 0.025 nM
10 | CCCCc1cc(N2CCC[C@@H](NCC(C)(C)C)C2)nc(Nc2ccc(C)c(C#N)c2)n1 [Example 304, (R)-5-({4-butyl-6-[3-(neopentylamino)piperidin-1-yl]pyrimidin-2-yl}amino)-2-methylbenzonitrile] | 0.049 nM
11 | CCCCc1cc(N2CCC[C@@H](NCCCSC)C2)nc(Nc2ccc(C)c(C#N)c2)n1 [Example 305, (R)-5-{[4-butyl-6-(3-{[3-(methylthio)propyl]amino}piperidin-1-yl)pyrimidin-2-yl]amino}-2-methylbenzonitrile] | 0.0091 nM
12 | CCCc1cc(N2CCC[C@@H](NC)C2)nc(Nc2ccc(F)c(N)c2)n1 [Example 306, (R)-4-fluoro-N^1-{4-[3-(methylamino)piperidin-1-yl]-6-propylpyrimidin-2-yl}benzene-1,3-diamine] | 0.015 nM
13 | CCCc1cc(N2CCC[C@@H](NC)C2)nc(Nc2ccc(Cl)c(N)c2)n1 [Example 307, (R)-4-chloro-N^1-{4-[3-(methylamino)piperidin-1-yl]-6-propylpyrimidin-2-yl}benzene-1,3-diamine] | 0.004 nM
14 | CCCc1cc(N2CCC[C@@H](NC)C2)nc(Nc2ccc(N)c(C#N)c2)n1 [Example 308, (R)-2-amino-5-({4-[3-(methylamino)piperidin-1-yl]-6-propylpyrimidin-2-yl}amino)benzonitrile] | 0.013 nM
15 | CCCc1cc(N2CCC[C@@H](NC)C2)nc(Nc2ccc(C)c(OC)c2)n1 [Example 309, (R)—N-(3-methoxy-4-methylphenyl)-4-[3-(methylamino)piperidin-1-yl]-6-propylpyrimidin-2-amine] | 0.011 nM
16 | CCCc1cc(N2CCC[C@@H](NC)C2)nc(Nc2ccc(C)c(N)c2)n1 [Example 310, (R)-4-methyl-N^1-{4-[3-(methylamino)piperidin-1-yl]-6-propylpyrimidin-2-yl}benzene-1,3-diamine] | 0.047 nM
17 | CCCCc1cc(N2CCC[C@@H](NC)C2)nc(Nc2ccc(C)c(C#N)c2)n1 [Example 311, (R)-5-({4-butyl-6-[3-(methylamino)piperidin-1-yl]pyrimidin-2-yl}amino)-2-methylbenzonitrile] | 0.0026 nM
18 | CCCCc1cc(N2CCC[C@@H](NC)C2)nc(Nc2ccc(F)c(C#N)c2)n1 [Example 312, (R)-5-({4-butyl-6-[3-(methylamino)piperidin-1-yl]pyrimidin-2-yl}amino)-2-fluorobenzonitrile] | 0.014 nM
19 | CCCCc1cc(N2CCC[C@@H](NC)C2)nc(Nc2cc(N)cc(C(F)(F)F)c2)n1 [Example 313, (R)—N^1-{4-butyl-6-[3-(methylamino)piperidin-1-yl]pyrimidin-2-yl}-5-(trifluoromethyl)benzene-1,3-diamine] | 0.005 nM

Row | SMILES | EC50
20 | CCCCc1cc(N2CCC[C@@H](NC)C2)nc(Nc2ccc(N)c(C(F)(F)F)c2)n1 [Example 314, (R)—N^1-{4-butyl-6-[3-(methylamino)piperidin-1-yl]pyrimidin-2-yl}-3-(trifluoromethyl)benzene-1,4-diamine] | 0.0019 nM
21 | CCCCc1cc(N2CCC[C@@H](NC)C2)nc(Nc2cc(N)cc(C#N)c2)n1 [Example 315, (R)-3-amino-5-({4-butyl-6-[3-(methylamino)piperidin-1-yl]pyrimidin-2-yl}amino)benzonitrile] | 0.0012 nM
22 | CCCCc1cc(N2CCC[C@@H](NC)C2)nc(Nc2ccc(N)c(C#N)c2)n1 [Example 316, (R)-2-amino-5-({4-butyl-6-[3-(methylamino)piperidin-1-yl]pyrimidin-2-yl}amino)benzonitrile] | 0.0067 nM
23 | CCCCc1cc(N2CCC[C@@H](NC)C2)nc(Nc2ccc(F)c(N)c2)n1 [Example 317, (R)—N^1-{4-butyl-6-[3-(methylamino)piperidin-1-yl]pyrimidin-2-yl}-4-fluorobenzene-1,3-diamine] | 0.0066 nM
24 | CCCCc1cc(N2CCC[C@@H](NC)C2)nc(Nc2ccc(C)c(OC)c2)n1 [Example 318, (R)-4-butyl-N-(3-methoxy-4-methylphenyl)-6-[3-(methylamino)piperidin-1-yl]pyrimidin-2-amine] | 0.025 nM
25 | CCCCc1cc(N2CCC[C@@H](NC)C2)nc(Nc2ccc(C)c(N)c2)n1 [Example 319, (R)—N^1-{4-butyl-6-[3-(methylamino)piperidin-1-yl]pyrimidin-2-yl}-4-methylbenzene-1,3-diamine] | 0.0047 nM
26 | CCCCc1cc(N2CCC[C@@H](NC)C2)nc(Nc2ccc(F)c(C(F)(F)F)c2)n1 [Example 320, (R)-4-butyl-N-[4-fluoro-3-(trifluoromethyl)phenyl]-6-[3-(methylamino)piperidin-1-yl]pyrimidin-2-amine] | 0.018 nM
27 | CCCc1cc(N2CCC[C@@H](NC)C2)nc(Nc2ccc(N)c([N+](=O)[O-])c2)n1 [Example 321, (R)—N^1-{4-[3-(methylamino)piperidin-1-yl]-6-propylpyrimidin-2-yl}-3-nitrobenzene-1,4-diamine dihydrochloride] | 0.0031 nM
28 | CCCc1cc(N2CCC[C@@H](NC)C2)nc(Nc2ccc(C)c(C)c2)n1 [Example 322, (R)—N-(3,4-dimethylphenyl)-4-[3-(methylamino)piperidin-1-yl]-6-propylpyrimidin-2-amine] | 0.243 nM
29 | CCCc1cc(N2CCC[C@@H](NC)C2)nc(Nc2ccc(C)c(F)c2)n1 [Example 323, (R)—N-(3-fluoro-4-methylphenyl)-4-[3-(methylamino)piperidin-1-yl]-6-propylpyrimidin-2-amine] | 0.416 nM
30 | CCCc1cc(N2CCC[C@@H](NC)C2)nc(Nc2ccc(C)c(C(F)(F)F)c2)n1 [Example 324, (R)—N-[4-methyl-3-(trifluoromethyl)phenyl]-4-[3-(methylamino)piperidin-1-yl]-6-propylpyrimidin-2-amine] | 0.0087 nM
31 | CCCCc1cc(N2CCC[C@@H](NC)C2)nc(Nc2ccc(N)c([N+](=O)[O-])c2)n1 [Example 328, (R)—N^1-{4-butyl-6-[3-(methylamino)piperidin-1-yl]pyrimidin-2-yl}-3-nitrobenzene-1,4-diamine dihydrochloride] | 0.0029 nM
32 | CCCCc1cc(N2CCC[C@@H](NC)C2)nc(Nc2cccc(C#N)c2)n1 [Example 329, (R)-3-({4-butyl-6-[3-(methylamino)piperidin-1-yl]pyrimidin-2-yl}amino)benzonitrile] | 0.054 nM
33 | CCCCc1cc(N2CCC[C@@H](NC)C2)nc(Nc2ccc(C)c(C)c2)n1 [Example 330, (R)-4-butyl-N-(3,4-dimethylphenyl)-6-[3-(methylamino)piperidin-1-yl]pyrimidin-2-amine] | 0.086 nM
34 | CCCCc1cc(N2CCC[C@@H](NC)C2)nc(Nc2ccc(C)c(F)c2)n1 [Example 331, (R)-4-butyl-N-(3-fluoro-4-methylphenyl)-6-[3-(methylamino)piperidin-1-yl]pyrimidin-2-amine] | 0.218 nM
35 | CCCCc1cc(N2CCC[C@@H](NC)C2)nc(Nc2ccc(C)c(C(F)(F)F)c2)n1 [Example 332, (R)-4-butyl-N-[4-methyl-3-(trifluoromethyl)phenyl]-6-[3-(methylamino)piperidin-1-yl]pyrimidin-2-amine] | 0.017 nM
36 | CCCCc1cc(N2CCC[C@@H](NC)C2)nc(Nc2ccc(OC)c(N)c2)n1 [Example 333, (R)—N^1-{4-butyl-6-[3-(methylamino)piperidin-1-yl]pyrimidin-2-yl}-4-methoxybenzene-1,3-diamine] | 0.132 nM
37 | CCCCc1cc(N2CCC[C@@H](N)C2)nc(Nc2ccc(N)c([N+](=O)[O-])c2)n1 [Example 337, (R)—N^1-[4-(3-aminopiperidin-1-yl)-6-butylpyrimidin-2-yl]-3-nitrobenzene-1,4-diamine dihydrochloride] | 0.006 nM
